This test addresses T1, human leukocyte elastase (Homo sapiens, UniProt P08246).
T1 sequence (P08246 30-267): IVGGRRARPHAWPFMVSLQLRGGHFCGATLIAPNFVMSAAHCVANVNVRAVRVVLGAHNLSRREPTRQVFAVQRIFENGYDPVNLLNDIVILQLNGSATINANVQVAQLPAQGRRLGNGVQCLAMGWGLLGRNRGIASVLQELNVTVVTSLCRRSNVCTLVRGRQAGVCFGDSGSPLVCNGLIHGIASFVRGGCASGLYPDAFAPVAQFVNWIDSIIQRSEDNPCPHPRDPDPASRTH
Kind of test: in vitro human leukocyte elastase inhibiting activity (fluorogenic substrate, method of JP-A-2-101017 with slight modification). The class given is biochemical. The settings on record: 50% inhibitory concentration; substrate methoxysuccinyl-Ala-Ala-Pro-Val-7-amido-4-methylcoumarin; 0.2 M Tris-hydrochloride buffer (0.02 M CaCl2, 0.005% Triton X-100), pH 7.2; compound and enzyme incubated at 25°C for 20 minutes; read-out: IC50. The procedure:
Thus, methoxysuccinyl-Ala-Ala-Pro-Val-7-amido-4-methylcoumarin was used as a substrate for human leukocyte elastase and the 50% inhibitory concentration (IC₅₀) was measured. The enzymatic reaction was carried out in 0.2 M Tris-hydrochloride buffer (containing 0.02 M CaCl₂ and 0.005% Triton X-100) at pH 7.2. Each mixture of test compound solution and the enzyme solution was incubated at 25°C for 20 minutes.

Molecules are shown by their SMILES.

Consider `CC1(C(=O)Nc2ccc(C(=O)Oc3cc(Cl)cc(Cl)c3)cc2)CC1` [Compound 1, 3,5-dichlorophenyl 4-(1-methylcyclopropanecarbonylamino)benzoate], for which the half-maximal inhibitory concentration (IC50) is 0.037 µM. The value for `CCC(=O)Nc1ccc(C(=O)Oc2cc(Cl)cc(Cl)c2)cc1` [Compound 2, 3,5-dichlorophenyl 4-(propanoylamino)benzoate] was 0.007 µM. In the case of `CCCC(=O)Nc1ccc(C(=O)Oc2cc(Cl)cc(Cl)c2)cc1` [Compound 3, 3,5-dichlorophenyl 4-(butanoylamino)benzoate] it was 0.0019 µM; in that of `CCCCC(=O)Nc1ccc(C(=O)Oc2cc(Cl)cc(Cl)c2)cc1` [Compound 4, 3,5-dichlorophenyl 4-(pentanoylamino)benzoate], 0.023 µM. The value for `CCCCCC(=O)Nc1ccc(C(=O)Oc2cc(Cl)cc(Cl)c2)cc1` [Compound 5, 3,5-dichlorophenyl 4-(hexanoylamino)benzoate] was 0.037 µM; that for `CCCCCCCC(=O)Nc1ccc(C(=O)Oc2cc(Cl)cc(Cl)c2)cc1` [Compound 6, 3,5-dichlorophenyl 4-(octanoylamino)benzoate] was 0.11 µM. With `CC(C)C(=O)Nc1ccc(C(=O)Oc2cc(Cl)cc(Cl)c2)cc1` [Compound 7, 3,5-dichlorophenyl 4-(isobutanoylamino)benzoate], the IC50 was 0.0041 µM. In the case of `CC(C)(C)C(=O)Nc1ccc(C(=O)Oc2cc(Cl)cc(Cl)c2)cc1` [Compound 8, 3,5-dichlorophenyl 4-(pivaloylamino)benzoate], the IC50 was determined as 0.0064 µM. For `O=C(Cc1ccccc1)Nc1ccc(C(=O)Oc2cc(Cl)cc(Cl)c2)cc1` [Compound 9, 3,5-dichlorophenyl 4-(phenylacetylamino)benzoate], the IC50 is 0.0053 µM.

With `O=C(Oc1cc(Cl)cc(Cl)c1)c1ccc(NC(=O)C(Cl)(Cl)Cl)cc1` [Compound 10, 3,5-dichlorophenyl 4-(trichloroacetylamino)benzoate], the IC50 was determined as 0.028 µM. In the case of `O=C(Oc1cc(Cl)cc(Cl)c1)c1ccc(NC(=O)C(F)(F)F)cc1` [Compound 11, 3,5-dichlorophenyl 4-(trifluoroacetylamino)benzoate] it was 0.067 µM; in that of `O=C(Oc1cc(Cl)cc(Cl)c1)c1ccc(NC(=O)C(F)(F)C(F)(F)F)cc1` [Compound 12, 3,5-dichlorophenyl 4-(pentafluoropropanoylamino)benzoate], 0.01 µM; in that of `CC=CC(=O)Nc1ccc(C(=O)Oc2cc(Cl)cc(Cl)c2)cc1` [Compound 13, 3,5-dichlorophenyl 4-(2-butenoylamino)benzoate], 0.009 µM.

For the compound `C=C(C)C(=O)Nc1ccc(C(=O)Oc2cc(Cl)cc(Cl)c2)cc1` [Compound 14, 3,5-dichlorophenyl 4-(2-methylpropenoylamino)benzoate], the IC50 stood at 0.0035 µM. The value for `O=C(Oc1cc(Cl)cc(Cl)c1)c1ccc(NC(=O)C2CC2)cc1` [Compound 15, 3,5-dichlorophenyl 4-(cyclopropanecarbonylamino)benzoate] was 0.0077 µM; that for `O=C(Oc1cc(Cl)cc(Cl)c1)c1ccc(NC(=O)C2CCC2)cc1` [Compound 16, 3,5-dichlorophenyl 4-(cyclobutanecarbonylamino)benzoate] was 0.0092 µM.

Take `O=C(Oc1cc(Cl)cc(Cl)c1)c1ccc(NC(=O)C2CCCCC2)cc1` [Compound 18, 3,5-dichlorophenyl 4-(cyclohexanecarbonylamino)benzoate]: the IC50 was 0.01 µM. The value for `CC(C)CC(=O)Nc1ccc(C(=O)Oc2cc(Cl)cc(Cl)c2)cc1` [Compound 19, 3,5-dichlorophenyl 4-(3-methylbutanoylamino)benzoate] was 0.096 µM; that for `CC(C(=O)Nc1ccc(C(=O)Oc2cc(Cl)cc(Cl)c2)cc1)c1ccccc1` (stereo not drawn) [Compound 20, 3,5-dichlorophenyl 4-(2-methyl-2-phenylacetylamino)benzoate] was 0.012 µM; that for `O=C(C=Cc1ccccc1)Nc1ccc(C(=O)Oc2cc(Cl)cc(Cl)c2)cc1` [Compound 21, 3,5-dichlorophenyl 4-(cinnamoylamino)benzoate] was 0.14 µM. As to `O=C(O)CCC(=O)Nc1ccc(C(=O)Oc2cc(Cl)cc(Cl)c2)cc1` [Compound 22, 3,5-dichlorophenyl 4-(succinylamino)benzoate], the IC50 came to 0.023 µM. In the case of `O=C(Oc1cc(Cl)cc(Cl)c1)c1ccc(N2C(=O)CCC2=O)cc1` [Compound 23, 3,5-dichlorophenyl 4-(succinimidyl)benzoate], the IC50 was 0.14 µM. For the compound `CS(=O)(=O)Nc1ccc(C(=O)Oc2cc(Cl)cc(Cl)c2)cc1` [Compound 24, 3,5-dichlorophenyl 4-(methanesulfonylamino)benzoate], the half-inhibitory concentration (IC50) was determined as 0.098 µM. Take `O=C(Oc1cc(Cl)cc(Cl)c1)c1ccc(NS(=O)(=O)c2ccccc2)cc1` [Compound 25, 3,5-dichlorophenyl 4-(benzenesulfonylamino)benzoate]: the IC50 came to 0.26 µM. The value for `CNC(=O)Nc1ccc(C(=O)Oc2cc(Cl)cc(Cl)c2)cc1` [Compound 26, 3,5-dichlorophenyl 4-(3-methylureido)benzoate] was 0.047 µM; that for `CCNC(=O)Nc1ccc(C(=O)Oc2cc(Cl)cc(Cl)c2)cc1` [Compound 27, 3,5-dichlorophenyl 4-(3-ethylureido)benzoate] was 0.021 µM; that for `CCCNC(=O)Nc1ccc(C(=O)Oc2cc(Cl)cc(Cl)c2)cc1` [Compound 28, 3,5-dichlorophenyl 4-(3-propylureido)benzoate] was 0.016 µM. In the case of `CCCCNC(=O)Nc1ccc(C(=O)Oc2cc(Cl)cc(Cl)c2)cc1` [Compound 29, 3,5-dichlorophenyl 4-(3-butylureido)benzoate] it was 0.02 µM. On to `CCCCCNC(=O)Nc1ccc(C(=O)Oc2cc(Cl)cc(Cl)c2)cc1` [Compound 30, 3,5-dichlorophenyl 4-(3-pentylureido)benzoate], for which the IC50 stood at 0.19 µM. The value for `CC(C)NC(=O)Nc1ccc(C(=O)Oc2cc(Cl)cc(Cl)c2)cc1` [Compound 31, 3,5-dichlorophenyl 4-(3-isopropylureido)benzoate] was 0.013 µM; that for `CN(C)C(=O)Nc1ccc(C(=O)Oc2cc(Cl)cc(Cl)c2)cc1` [Compound 32, 3,5-dichlorophenyl 4-(3,3-dimethylureido)benzoate] was 0.0059 µM; that for `COC(=O)Nc1ccc(C(=O)Oc2cc(Cl)cc(Cl)c2)cc1` [Compound 33, 3,5-dichlorophenyl 4-(methoxycarbonylamino)benzoate] was 0.026 µM. The value for `O=C(Nc1ccc(C(=O)Oc2cc(Cl)cc(Cl)c2)cc1)OCc1ccccc1` [Compound 34, 3,5-dichlorophenyl 4-(benzyloxycarbonylamino)benzoate] was 0.26 µM; that for `O=C(Nc1ccc(C(=O)Oc2cc(Cl)cc(Cl)c2)cc1)OCCO` [Compound 35, 3,5-dichlorophenyl 4-(2-hydroxyethoxycarbonylamino)benzoate] was 0.038 µM; that for `CC(=O)OC(=O)Nc1ccc(C(=O)Oc2cc(Cl)cc(Cl)c2)cc1` [Compound 36, 3,5-dichlorophenyl 4-(acetoxycarbonylamino)benzoate] was 0.031 µM. In the case of `O=C(Cc1cccs1)Nc1ccc(C(=O)Oc2cc(Cl)cc(Cl)c2)cc1` [Compound 37, 3,5-dichlorophenyl 4-(2-thienylacetylamino)benzoate] it was 0.079 µM.

These data come from patent publication EP0475531A1, “Benzoic acid phenylester compounds and elastase inhibiting compositions containing the same” (Asahi Kasei Kogyo Kabushiki Kaisha, priority 1990, dated 1992).
